The values below come from US20180348231A1, “LIGAND INDUCIBLE POLYPEPTIDE COUPLER SYSTEM” (Intrexon Corporation, priority 2015, published 2018).

“Also recorded” adds a separate entry of the source.

One assay concerns EcR_Nluc+Cluc_EcR. As to the kind of experiment: Split fLuc bioluminescence assay, EcR-EcR homodimerization. To be noted: upon ligand addition, FIGS. 11 and 12. Format: cell-based. Here is the method: (§1) Experiments were performed to test if nuclear receptor domains (i.e., EcR and RxR polypeptides) could be induced to homodimerize upon addition of ligand (FIGS. 11 and 12). STAT1 was used as control polypeptide since it is reported to self dimerize independent of ligand addition. Abbreviations in the figures are:
“EcR-EcR” means “EcR_Nluc+Cluc_EcR” which is a luciferase polypeptide split into two halves, such that an EcR polypeptide is fused to the N-terminus of a luciferase polypeptide fragment (EcR_Nluc) and another fragment of luciferase has an EcR polypeptide fused to its C-terminal end (Cluc_EcR); thereby activating luciferase (generation of bioluminescence) upon EcR homodimerization;

Another assay deals with T1, STAT1 (Homo sapiens, UniProt P42224).
T1 construct: expressed in transfected cells; host or cells: HEK293 / 293T cells
Put plainly: Split fLuc bioluminescence assay, STAT1 positive control. Format: cell-based. To be noted: Ligand − and +, FIG. 7.

For assay [1], the system named is split fLuc fused to EcR and RXR domains. As to the kind of experiment: Split firefly luciferase (fLuc) bioluminescence assay, EcR-RXR ligand inducible polypeptide coupler. The class given is cell-based. On the procedure: (§2) HEK293 cells were transfected with the split fLuc fused to EcR and RXR domains as follows:
(§3) A day before transfection, 10,000 cells (293T cells) were plated into each well of a 96 well plate containing 100 μl of growth medium (Dulbecco's Modified Eagle's Medium with 10% Fetal Bovine Serum) without antibiotics. Plasmids in pairs, RxR Nluc with Cluc EcR and EcR_ Nluc with Cluc_ RxR (see FIG. 8; amino acid sequences for the constructs depicted in FIG. 8 are provided as SEQ ID NOs: 87-92, respectively. SEQ ID NOs: 91 and 92 correspond to the EcR and RXR amino sequences, respectively, employed in the constructs of FIG. 8), were transfected with Lipofectamine® 2000, according to manufacturer's specifications. Briefly, individual plasmid DNA (0.2 μg) and 0.5 μl of Lipofectamine 2000® was diluted in 25.0 μl of OptiMEM® I Reduced Serum Medium and incubated for 5 minutes at room temperature, volumes were doubled for co-transfections. Diluted plasmid DNA was combined with diluted Lipofectamine® 2000 and incubated for 20 minutes at room temperature. 50 μl of the DNA/Lipofectamine® 2000 complex was added to each well of the 96 well plate. Cells were incubated at 37° C. in a 5% CO2 incubator for 24 hours, prior to addition of the activating ligand Veledimex. […]

The subject of the next assay is 293T cells. Put plainly: Bioluminescence assay, mock (no vector), activating ligand alone. Format: cell-based. The conditions noted are these: negative control, no split fLuc vectors; FIG. 7. On the procedure:
A day before transfection, 10,000 cells (293T cells) were plated into each well of a 96 well plate containing 100 μl of growth medium (Dulbecco's Modified Eagle's Medium with 10% Fetal Bovine Serum) without antibiotics. Plasmids in pairs, RxR Nluc with Cluc EcR and EcR_ Nluc with Cluc_ RxR (see FIG. 8; amino acid sequences for the constructs depicted in FIG. 8 are provided as SEQ ID NOs: 87-92, respectively. SEQ ID NOs: 91 and 92 correspond to the EcR and RXR amino sequences, respectively, employed in the constructs of FIG. 8), were transfected with Lipofectamine® 2000, according to manufacturer's specifications. Briefly, individual plasmid DNA (0.2 μg) and 0.5 μl of Lipofectamine 2000® was diluted in 25.0 μl of OptiMEM® I Reduced Serum Medium and incubated for 5 minutes at room temperature, volumes were doubled for co-transfections. Diluted plasmid DNA was combined with diluted Lipofectamine® 2000 and incubated for 20 minutes at room temperature. 50 μl of the DNA/Lipofectamine® 2000 complex was added to each well of the 96 well plate. Cells were incubated at 37° C. in a 5% CO2 incubator for 24 hours, prior to addition of the activating ligand Veledimex.
Twenty four hours (24hrs) post-transfection, cell culture media from each well of the 96-well plate was replaced with 100 nM Veledimex activating ligand and Dimethyl sulfoxide-DMSO (negative control). […]

For the next assay, the target named is T2, RxR domains (Homo sapiens, UniProt P28702, A451V/A495S/C475T/D450E/E481D/K452R/K476R/K478T/K511R/N456S/P457A/Q477T/Q482E/Q483P/S455K/S458Q/S470A/T473E/T516V/V462L/Y479H).
T2 construct: expressed in transfected cells
As to the kind of experiment: Split fLuc bioluminescence assay, RxR homodimerization. Format: cell-based. The conditions noted are these: FIGS. 11 and 12. Here is the method:
as §1
“RxR” is Retinoid X receptor;

A further assay concerns the target T3, Cluc_RxR.
T3 construct: Expressed in transfected 293T cells
T3 chain: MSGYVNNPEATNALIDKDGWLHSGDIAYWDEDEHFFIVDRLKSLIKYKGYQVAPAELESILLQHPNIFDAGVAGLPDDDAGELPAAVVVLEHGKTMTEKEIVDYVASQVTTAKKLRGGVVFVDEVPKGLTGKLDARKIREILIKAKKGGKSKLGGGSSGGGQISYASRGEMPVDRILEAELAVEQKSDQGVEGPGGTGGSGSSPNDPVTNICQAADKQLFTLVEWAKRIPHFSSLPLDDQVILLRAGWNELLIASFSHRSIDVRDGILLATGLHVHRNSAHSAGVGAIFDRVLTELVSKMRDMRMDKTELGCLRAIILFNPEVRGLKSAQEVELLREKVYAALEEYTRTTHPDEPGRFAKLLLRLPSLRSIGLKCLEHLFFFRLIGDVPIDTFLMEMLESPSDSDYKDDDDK
As to the kind of experiment: split firefly luciferase complementation, with and without Veledimex. Here is the method: as §2
as §3, with “CO₂” for “CO2”

T1 sequence (P42224 with tags, fused parts or gaps): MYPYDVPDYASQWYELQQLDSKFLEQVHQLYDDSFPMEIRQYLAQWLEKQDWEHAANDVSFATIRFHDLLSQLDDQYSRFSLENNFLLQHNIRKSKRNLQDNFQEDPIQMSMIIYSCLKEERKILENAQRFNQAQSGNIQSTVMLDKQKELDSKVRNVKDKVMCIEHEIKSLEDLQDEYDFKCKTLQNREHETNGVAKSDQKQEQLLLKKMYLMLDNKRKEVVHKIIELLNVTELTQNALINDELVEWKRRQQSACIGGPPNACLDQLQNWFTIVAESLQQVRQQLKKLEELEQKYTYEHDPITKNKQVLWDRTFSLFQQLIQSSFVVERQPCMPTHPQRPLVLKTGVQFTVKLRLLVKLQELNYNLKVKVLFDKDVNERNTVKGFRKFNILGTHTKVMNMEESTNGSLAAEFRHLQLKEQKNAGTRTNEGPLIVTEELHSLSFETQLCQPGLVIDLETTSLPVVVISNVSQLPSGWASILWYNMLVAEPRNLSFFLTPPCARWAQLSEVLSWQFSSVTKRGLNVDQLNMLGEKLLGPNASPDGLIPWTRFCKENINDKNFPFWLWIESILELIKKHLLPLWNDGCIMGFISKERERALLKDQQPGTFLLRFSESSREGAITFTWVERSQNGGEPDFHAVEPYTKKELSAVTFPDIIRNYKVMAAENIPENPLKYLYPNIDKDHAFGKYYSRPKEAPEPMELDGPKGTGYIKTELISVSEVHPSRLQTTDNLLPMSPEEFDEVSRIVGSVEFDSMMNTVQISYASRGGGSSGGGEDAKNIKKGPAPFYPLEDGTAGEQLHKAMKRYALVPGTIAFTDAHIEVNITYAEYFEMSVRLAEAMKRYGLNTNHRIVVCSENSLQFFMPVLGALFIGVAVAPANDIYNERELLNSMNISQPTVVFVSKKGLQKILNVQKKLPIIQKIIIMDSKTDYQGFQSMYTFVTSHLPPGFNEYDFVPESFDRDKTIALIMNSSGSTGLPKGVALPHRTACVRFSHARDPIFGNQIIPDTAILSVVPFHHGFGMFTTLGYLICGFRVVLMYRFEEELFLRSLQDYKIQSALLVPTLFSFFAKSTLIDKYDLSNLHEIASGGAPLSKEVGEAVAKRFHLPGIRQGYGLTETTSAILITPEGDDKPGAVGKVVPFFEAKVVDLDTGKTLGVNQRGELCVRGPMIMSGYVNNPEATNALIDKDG
T1 sequence (P42224 with tags, fused parts or gaps): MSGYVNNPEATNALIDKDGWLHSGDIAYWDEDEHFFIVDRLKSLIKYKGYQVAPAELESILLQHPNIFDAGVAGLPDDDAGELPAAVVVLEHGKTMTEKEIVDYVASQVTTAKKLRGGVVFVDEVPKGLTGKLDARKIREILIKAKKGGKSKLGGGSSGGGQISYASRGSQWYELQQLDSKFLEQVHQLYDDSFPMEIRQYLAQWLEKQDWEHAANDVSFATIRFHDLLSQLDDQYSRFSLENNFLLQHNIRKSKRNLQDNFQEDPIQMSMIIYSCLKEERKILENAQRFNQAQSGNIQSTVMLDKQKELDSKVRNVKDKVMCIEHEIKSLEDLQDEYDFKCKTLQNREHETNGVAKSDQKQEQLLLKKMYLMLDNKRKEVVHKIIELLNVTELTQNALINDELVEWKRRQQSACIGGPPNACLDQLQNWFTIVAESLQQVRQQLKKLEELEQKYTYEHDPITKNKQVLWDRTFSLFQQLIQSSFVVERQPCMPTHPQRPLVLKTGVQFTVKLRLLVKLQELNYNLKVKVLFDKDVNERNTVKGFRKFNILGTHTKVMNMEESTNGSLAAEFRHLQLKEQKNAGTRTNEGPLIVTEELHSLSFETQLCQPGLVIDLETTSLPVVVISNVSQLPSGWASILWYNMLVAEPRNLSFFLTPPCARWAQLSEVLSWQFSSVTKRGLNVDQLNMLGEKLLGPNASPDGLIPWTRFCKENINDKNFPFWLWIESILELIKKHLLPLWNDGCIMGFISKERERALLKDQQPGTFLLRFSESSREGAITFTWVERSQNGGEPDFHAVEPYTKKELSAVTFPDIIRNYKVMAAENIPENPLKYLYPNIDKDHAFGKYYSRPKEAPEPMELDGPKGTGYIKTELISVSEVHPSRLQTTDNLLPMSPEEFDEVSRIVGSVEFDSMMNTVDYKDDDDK

Take `CCC[C@@H](N(NC(=O)c1cccc(OC)c1CC)C(=O)c1cc(C)cc(C)c1)C(C)(C)C` [Veledimex]: the “EcR domain homodimerization (bioluminescence)” value in the assay on EcR_Nluc+Cluc_EcR is listed as “statistically significant homodimerization of EcR domains”. Besides, the “Signal of the positive control (STAT1 split fLuc)” value at STAT1 was “unaffected”. In assay [1] (EcR_Nluc+Cluc_RXR, Example 2, FIGS. 11 and 12), the “RxR-EcR heterodimerization (bioluminescence)” value is “strongest signal (bioluminescence) was observed”. For the same molecule, the “fLuc signal (bioluminescence)” value in assay [1] (cells transfected with split fLuc fused to EcR and RXR, 100 nM Veledimex, 6 hours after addition, FIG. 7, listed as activating ligand) is recorded as “fLuc signal was detected; also recorded: a clear fLuc signal is generated; also recorded: drives split fLuc signal only in the presence of activating ligand”. Further, the “fLuc reading, activating ligand alone” value with 293T cells is given as “only background readings”. In addition, the “RxR domain homodimerization (bioluminescence)” value on RxR domains is reported as “homodimerize independent of ligand”.

B1: RxR Nluc (other)
chain: MDYKDDDDKEMPVDRILEAELAVEQKSDQGVEGPGGTGGSGSSPNDPVTNICQAADKQLFTLVEWAKRIPHFSSLPLDDQVILLRAGWNELLIASFSHRSIDVRDGILLATGLHVHRNSAHSAGVGAIFDRVLTELVSKMRDMRMDKTELGCLRAIILFNPEVRGLKSAQEVELLREKVYAALEEYTRTTHPDEPGRFAKLLLRLPSLRSIGLKCLEHLFFFRLIGDVPIDTFLMEMLESPSDSQISYASRGGGSSGGGEDAKNIKKGPAPFYPLEDGTAGEQLHKAMKRYALVPGTIAFTDAHIEVNITYAEYFEMSVRLAEAMKRYGLNTNHRIVVCSENSLQFFMPVLGALFIGVAVAPANDIYNERELLNSMNISQPTVVFVSKKGLQKILNVQKKLPIIQKIIIMDSKTDYQGFQSMYTFVTSHLPPGFNEYDFVPESFDRDKTIALIMNSSGSTGLPKGVALPHRTACVRFSHARDPIFGNQIIPDTAILSVVPFHHGFGMFTTLGYLICGFRVVLMYRFEEELFLRSLQDYKIQSALLVPTLFSFFAKSTLIDKYDLSNLHEIASGGAPLSKEVGEAVAKRFHLPGIRQGYGLTETTSAILITPEGDDKPGAVGKVVPFFEAKVVDLDTGKTLGVNQRGELCVRGPMIMSGYVNNPEATNALIDKDG
notes: also called R×R Nluc; RXR-fLuc
B1: the binding result with Cluc_RxR is reported as “binds”.
